Here are results for six compounds from US8809350B2, “Purine and pyrimidine CDK inhibitors and their use for the treatment of autoimmune diseases” (priority 2004, dated 2014).

Structures are written as SMILES. Entries after “also recorded” stand apart in the source; their conditions may differ. Like-named read-outs stand apart in the source and are kept apart here.

In one test the target is CDK7/cyclin H (Homo sapiens, UniProt P50613). Nature of the test: CDK 7 and 9 assay (CTD peptide substrate). The test is classed as biochemical. The following applies: in-house kinase assays; read-out: Average IC50 CDK7H. As to the method:
(§1) Kinase activity was investigated by measuring the incorporation of radioactive phosphate from ATP into appropriate polypeptide substrates. Recombinant protein kinases and kinase complexes were produced or obtained commercially. Assays were performed using 96-well plates and appropriate assay buffers (typically 25 mM β-glycerophosphate, 20 mM MOPS, 5 mM EGTA, 1 mM DTT, 1 mM […], pH 7.4), into which were added 2-4 μg of active enzyme with appropriate substrates. The reactions were initiated by addition of Mg/ATP mix (15 mM MgCl2+100 μM ATP with 30-50 kBq per well of [γ-^32P]-ATP) and mixtures incubated as required at 30° C. Reactions were stopped on ice, followed by filtration through p81 filterplates or GF/C filterplates (Whatman Polyfiltronics, Kent, UK). After washing 3 times with 75 mM aq orthophosphoric acid, plates were dried, scintillant added and incorporated radioactivity measured in a scintillation counter (TopCount, Packard Instruments, Pangbourne, Berks, UK). Compounds for kinase assay were made up as 10 mM stocks in DMSO and diluted into 10% DMSO in assay buffer.
(§2) The reaction was stopped by placing the plate on ice for 2 min. Avidin (50 μg) was added to each well, and the plate was incubated at room temp for 30 min. The samples were transferred to a 96-well P81 filter plate, and washed (4×200 μL per well) with 75 mM phosphoric acid. Microscint 40 scintillation liquid (50 μL) was added to each well, and the amount of ^32P incorporation for each sample was measured using a Packard Topcount microplate scintillation counter.

In the next test the test system is HCT116 cells. The following applies: cited from earlier work.
The target in the next test is CDK9/cyclin T1 (Homo sapiens, UniProt P50750). Nature of the test: CDK 7 and 9 assay (CTD peptide substrate). The test is classed as biochemical. The following applies: in-house kinase assays; read-out: Average IC50 CDK9T1. As to the method: as §1, §2
A further test relates to tumour cell panels. Nature of the test: In-house 72 hour cytotoxicity assays on tumour cell panels. The test is classed as cell-based.
For a further test, the target named is CDK2E (Homo sapiens, UniProt P24941). Nature of the test: In-house kinase assay (32P incorporation). The format is biochemical. The settings on record: in-house kinase assays. As to the method: as §1
The next test addresses CDK2A (Homo sapiens, UniProt P24941). Nature of the test: In-house kinase assay (32P incorporation). The test is classed as biochemical. The following applies: in-house kinase assays. As to the method: as §1
The next test addresses AurB (Homo sapiens, UniProt Q96GD4). Description: In-house kinase assay (32P incorporation). The test is classed as biochemical. The settings on record: in-house kinase assays. As to the method:
as §1

In a further test the target is CDK6D3 (Homo sapiens, UniProt Q00534). Description: In-house kinase assay (32P incorporation). The format is biochemical. The following applies: in-house kinase assays. As to the method: as §1
The target of another test is CDK1B (Homo sapiens, UniProt P06493). Description: In-house kinase assay (32P incorporation). The format is biochemical. The following applies: in-house kinase assays. As to the method:
as §1

The target of a further test is T1, AurA (Homo sapiens, UniProt O14965).
T1 sequence (O14965 1-403): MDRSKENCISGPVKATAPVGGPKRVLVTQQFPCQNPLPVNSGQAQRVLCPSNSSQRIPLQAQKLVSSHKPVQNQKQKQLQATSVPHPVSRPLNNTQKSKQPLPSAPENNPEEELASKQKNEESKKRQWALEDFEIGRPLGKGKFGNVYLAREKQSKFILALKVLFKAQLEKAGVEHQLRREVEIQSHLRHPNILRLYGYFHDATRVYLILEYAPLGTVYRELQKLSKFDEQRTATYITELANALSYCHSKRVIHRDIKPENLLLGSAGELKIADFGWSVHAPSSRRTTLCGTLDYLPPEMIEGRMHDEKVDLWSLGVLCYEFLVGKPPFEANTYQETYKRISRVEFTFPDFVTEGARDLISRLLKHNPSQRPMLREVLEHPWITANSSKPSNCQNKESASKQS
Nature of the test: In-house kinase assay (32P incorporation). The test is classed as biochemical. The following applies: in-house kinase assays. As to the method: as §1

For the next test, the target named is CDK4D1 (Homo sapiens, UniProt P11802). Nature of the test: In-house kinase assay (32P incorporation). The test is classed as biochemical. The settings on record: in-house kinase assays. As to the method: as §1
Another test concerns stimulated PBMCs. Description: T cell proliferation assay (BrdU ELISA in stimulated PBMCs). The test is classed as cell-based. As to the method:
PBMCs were seeded in 96 well plates at 1×10^5 cells/well, in 50 μL per well culture medium. […] All stimulants and compounds were made up to 4× final concentration in tissue culture medium and 25 μL of each drug and stimulant was then added to wells, for a final volume of 100 μL/well. For unstimulated controls, 25 μL tissue culture medium was added to wells instead of stimulant and for untreated cells, 25 μL/well tissue culture medium containing equal volume DMSO (0.1% final) was added. Three adjacent wells were treated for each stimulation/treatment condition and the mean value calculated for analysis.
In addition, PBMCs were stimulated with ConA (Concanavalin A, Sigma C5275) at concentrations ranging from 0.5 μg/mL to 100 μg/mL to identify its stimulatory effect and optimal concentration.
Cells were labelled with BrdU for two hours prior to harvesting. Plates were then centrifuged for 10 minutes at 300 g (RT), supernatant removed from wells by pipetting and cells dried for 1 hour at 60° C. FixDenat solution was added to plates (100 μL/well) and incubated for 30 minutes, then flicked to remove and anti-BrdU-POD solution added to plates (100 μL/well) and incubated for 90 minutes.
In general terms: Uptake of a labelled nucleoside into DNA is a usual measure of proliferation.

[1] abbreviates: rounded IC50 value used for ease of calculation in PBMC assays, read-out: IC50 Used.
[2] abbreviates: Example 3, PHA stimulated PBMCs, compounds at IC50 to 4×IC50, 48 hours after stimulation.
[3] abbreviates: Example 3, PMA/I stimulated PBMCs, all concentrations.
The mark [4] stands for this setting: Example 4, PHA or ConA stimulated PBMCs, 0.25×IC50 to 4×IC50, 48 and 72 hours.

Chain of CDK1B (P06493 whole entry): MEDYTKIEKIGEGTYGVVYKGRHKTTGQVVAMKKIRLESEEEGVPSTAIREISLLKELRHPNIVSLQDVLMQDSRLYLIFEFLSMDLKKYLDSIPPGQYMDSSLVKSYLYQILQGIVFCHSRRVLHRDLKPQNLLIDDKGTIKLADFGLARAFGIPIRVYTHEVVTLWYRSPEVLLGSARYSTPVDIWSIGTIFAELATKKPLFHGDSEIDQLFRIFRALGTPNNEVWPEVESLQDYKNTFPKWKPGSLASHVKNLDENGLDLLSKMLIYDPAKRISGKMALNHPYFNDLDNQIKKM
Chain of CDK1B (P14635 whole entry partner): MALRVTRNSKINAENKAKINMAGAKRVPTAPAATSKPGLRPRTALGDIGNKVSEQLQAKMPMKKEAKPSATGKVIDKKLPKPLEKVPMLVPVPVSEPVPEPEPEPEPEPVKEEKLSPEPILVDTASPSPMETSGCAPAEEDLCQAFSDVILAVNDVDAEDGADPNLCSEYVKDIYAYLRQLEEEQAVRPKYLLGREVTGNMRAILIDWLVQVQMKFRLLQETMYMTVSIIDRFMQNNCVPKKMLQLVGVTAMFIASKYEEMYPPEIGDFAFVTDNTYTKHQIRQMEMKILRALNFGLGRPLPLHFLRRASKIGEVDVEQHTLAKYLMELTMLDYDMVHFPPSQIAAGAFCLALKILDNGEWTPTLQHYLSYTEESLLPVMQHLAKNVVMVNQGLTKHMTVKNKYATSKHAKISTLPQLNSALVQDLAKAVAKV
Chain of CDK9/cyclin T1 (P50750 whole entry): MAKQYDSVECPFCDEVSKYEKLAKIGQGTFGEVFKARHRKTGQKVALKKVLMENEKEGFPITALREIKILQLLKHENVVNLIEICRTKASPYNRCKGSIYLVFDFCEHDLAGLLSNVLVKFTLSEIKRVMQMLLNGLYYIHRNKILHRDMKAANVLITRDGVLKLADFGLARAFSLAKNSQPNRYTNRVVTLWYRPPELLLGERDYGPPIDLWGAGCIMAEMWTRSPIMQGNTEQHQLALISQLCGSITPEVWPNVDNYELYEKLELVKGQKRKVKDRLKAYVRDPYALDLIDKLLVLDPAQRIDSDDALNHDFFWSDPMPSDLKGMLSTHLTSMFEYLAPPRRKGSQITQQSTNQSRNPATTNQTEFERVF
Chain of CDK9/cyclin T1 (O60563 whole entry partner): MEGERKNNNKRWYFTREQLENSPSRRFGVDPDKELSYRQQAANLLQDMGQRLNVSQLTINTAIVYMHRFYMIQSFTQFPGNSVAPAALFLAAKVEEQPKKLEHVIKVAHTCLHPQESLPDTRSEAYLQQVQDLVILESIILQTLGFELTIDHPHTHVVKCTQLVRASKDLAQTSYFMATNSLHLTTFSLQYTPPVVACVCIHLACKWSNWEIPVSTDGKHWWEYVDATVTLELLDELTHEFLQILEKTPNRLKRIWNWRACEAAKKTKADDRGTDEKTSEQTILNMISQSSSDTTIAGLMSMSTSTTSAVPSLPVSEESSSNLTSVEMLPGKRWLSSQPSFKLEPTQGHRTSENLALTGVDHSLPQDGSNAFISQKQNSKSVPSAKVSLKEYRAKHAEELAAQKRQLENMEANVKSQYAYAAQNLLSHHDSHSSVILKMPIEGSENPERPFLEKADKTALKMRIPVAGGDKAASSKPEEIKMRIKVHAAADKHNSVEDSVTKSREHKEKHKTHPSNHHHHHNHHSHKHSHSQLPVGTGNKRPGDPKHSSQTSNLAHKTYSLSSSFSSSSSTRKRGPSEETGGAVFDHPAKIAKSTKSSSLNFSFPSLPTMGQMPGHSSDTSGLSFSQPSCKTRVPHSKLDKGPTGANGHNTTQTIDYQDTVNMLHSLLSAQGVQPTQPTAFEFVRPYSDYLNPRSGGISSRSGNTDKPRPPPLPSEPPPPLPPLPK
Chain of CDK4D1 (P11802 whole entry): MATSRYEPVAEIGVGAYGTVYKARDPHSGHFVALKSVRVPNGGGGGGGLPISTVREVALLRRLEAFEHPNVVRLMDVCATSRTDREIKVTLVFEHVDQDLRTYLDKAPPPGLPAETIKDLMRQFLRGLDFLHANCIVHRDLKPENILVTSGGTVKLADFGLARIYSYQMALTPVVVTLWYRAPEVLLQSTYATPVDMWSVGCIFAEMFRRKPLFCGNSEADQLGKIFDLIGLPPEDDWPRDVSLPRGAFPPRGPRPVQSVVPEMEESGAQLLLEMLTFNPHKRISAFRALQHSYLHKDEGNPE
Chain of CDK4D1 (P24385 whole entry partner): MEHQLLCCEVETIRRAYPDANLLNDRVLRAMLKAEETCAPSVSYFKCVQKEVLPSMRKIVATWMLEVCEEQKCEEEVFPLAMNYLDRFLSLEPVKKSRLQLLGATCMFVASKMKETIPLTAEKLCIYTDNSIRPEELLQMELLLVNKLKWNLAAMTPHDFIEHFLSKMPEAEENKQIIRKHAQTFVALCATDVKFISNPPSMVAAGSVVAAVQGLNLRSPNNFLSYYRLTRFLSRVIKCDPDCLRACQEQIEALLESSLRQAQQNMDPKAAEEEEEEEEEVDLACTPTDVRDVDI
Chain of CDK6D3 (Q00534 whole entry): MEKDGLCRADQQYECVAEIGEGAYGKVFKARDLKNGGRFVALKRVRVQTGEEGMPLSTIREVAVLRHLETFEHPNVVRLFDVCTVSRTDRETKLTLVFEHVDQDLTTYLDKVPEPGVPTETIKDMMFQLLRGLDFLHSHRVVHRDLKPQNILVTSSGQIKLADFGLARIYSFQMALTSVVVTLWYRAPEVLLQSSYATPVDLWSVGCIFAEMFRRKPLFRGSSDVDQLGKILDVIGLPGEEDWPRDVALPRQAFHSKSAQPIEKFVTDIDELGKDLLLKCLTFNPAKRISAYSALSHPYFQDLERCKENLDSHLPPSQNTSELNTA
Chain of CDK6D3 (P30281 whole entry partner): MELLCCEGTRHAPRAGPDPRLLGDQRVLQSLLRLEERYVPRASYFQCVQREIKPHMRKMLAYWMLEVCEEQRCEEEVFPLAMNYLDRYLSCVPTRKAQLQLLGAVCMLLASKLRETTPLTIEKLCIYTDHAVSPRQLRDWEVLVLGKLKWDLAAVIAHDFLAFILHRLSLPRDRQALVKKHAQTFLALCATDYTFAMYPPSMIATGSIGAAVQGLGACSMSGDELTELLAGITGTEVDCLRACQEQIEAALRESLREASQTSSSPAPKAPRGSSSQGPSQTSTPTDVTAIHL
Chain of CDK7/cyclin H (P50613 whole entry): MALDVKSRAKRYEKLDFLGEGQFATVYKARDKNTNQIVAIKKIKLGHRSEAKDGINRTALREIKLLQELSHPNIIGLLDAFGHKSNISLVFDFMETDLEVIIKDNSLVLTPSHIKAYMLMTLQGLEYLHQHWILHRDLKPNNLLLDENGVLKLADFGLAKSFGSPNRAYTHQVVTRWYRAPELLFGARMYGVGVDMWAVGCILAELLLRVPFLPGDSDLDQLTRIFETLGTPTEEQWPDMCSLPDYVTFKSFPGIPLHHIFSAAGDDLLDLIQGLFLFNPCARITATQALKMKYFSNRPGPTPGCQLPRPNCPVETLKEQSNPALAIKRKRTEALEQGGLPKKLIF
Chain of CDK7/cyclin H (P51946 whole entry partner): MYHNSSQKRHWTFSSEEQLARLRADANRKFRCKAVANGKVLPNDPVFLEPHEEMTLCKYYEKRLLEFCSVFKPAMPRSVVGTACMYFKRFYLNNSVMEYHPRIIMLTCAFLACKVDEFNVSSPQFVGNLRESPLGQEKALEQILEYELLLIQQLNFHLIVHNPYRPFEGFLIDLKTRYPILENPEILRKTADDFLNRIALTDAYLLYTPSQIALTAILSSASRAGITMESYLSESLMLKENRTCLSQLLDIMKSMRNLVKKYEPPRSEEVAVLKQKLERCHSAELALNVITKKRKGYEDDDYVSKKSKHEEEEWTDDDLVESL
Chain of AurB (Q96GD4 whole entry): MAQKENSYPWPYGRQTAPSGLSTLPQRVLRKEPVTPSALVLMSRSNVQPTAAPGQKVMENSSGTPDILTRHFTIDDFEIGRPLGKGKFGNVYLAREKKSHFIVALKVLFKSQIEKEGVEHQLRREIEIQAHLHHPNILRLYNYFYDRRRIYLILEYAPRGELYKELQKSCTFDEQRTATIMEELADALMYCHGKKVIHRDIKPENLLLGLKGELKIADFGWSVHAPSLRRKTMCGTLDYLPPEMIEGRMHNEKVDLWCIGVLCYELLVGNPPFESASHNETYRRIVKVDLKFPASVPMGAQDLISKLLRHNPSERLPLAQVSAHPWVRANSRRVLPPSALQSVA

Usually IC50 stands for the concentration that inhibits the measured activity by half. As to `Cn1cnc2c(NCc3ccccc3)nc(NCCO)nc21` [Compound 3], the IC50 is greater than 20000 nM at CDK7/cyclin H; 56000 nM in the test on HCT116 cells (published for HCT116 cells, Raynaud et al. 2005, no in-house data, read-out: IC50 Average); 50000 nM in the test on HCT116 cells (rounded from published HCT116 IC50, used in PBMC assays, read-out: IC50 Used).
On to `CC[C@@H](Nc1nc(NCc2cccnc2)c2ncn(C(C)C)c2n1)C(C)(C)O` [Compound 5], for which the concentration for half-maximal inhibition (IC50) on CDK9/cyclin T1 is 2710 nM; at CDK7/cyclin H it was 27000 nM; with tumour cell panels (72 h, read-out: IC50 Average), 1430 nM; in the test on tumour cell panels (setting [1]), 1500 nM; against CDK2E it was 931 nM; on CDK2A, 1240 nM. Besides, the half-maximal inhibitory concentration (IC50) against AurB came to 23 nM; against CDK6D3, 1940 nM; against CDK1B, 15900 nM; against AurA, 51 nM; on CDK4D1 it was 2750 nM.
For `CC[C@H](Nc1nc(NCc2cccnc2)c2ncn(C(C)C)c2n1)C(C)(C)O` [Compound 6], the 50% inhibitory concentration (IC50) was 338 nM at CDK9/cyclin T1; 1330 nM at CDK7/cyclin H; 10400 nM in the test on tumour cell panels (72 h, read-out: IC50 Average); 10000 nM in the test on tumour cell panels (setting [1]); 126 nM at CDK2E; greater than 10000 nM against AurB. The IC50 is 9190 nM against CDK6D3, 7600 nM on CDK1B, greater than 10000 nM against AurA and 19300 nM against CDK4D1.
As to `Cc1c(-c2ccnc(Nc3ccc(N4CCNCC4)cc3)n2)sc(=O)n1C` [Compound 7], the IC50 on CDK9/cyclin T1 was 195 nM; at CDK7/cyclin H it was 983 nM; in the test on tumour cell panels (72 h, read-out: IC50 Average), 5310 nM; in the test on tumour cell panels (setting [1]), 5000 nM; on CDK2E it was 71 nM; against CDK2A it was 223 nM. Also, the IC50 was greater than 10000 nM against AurB; 6270 nM against CDK6D3; 4950 nM against CDK1B; greater than 10000 nM against AurA; 7630 nM against CDK4D1. Further, in the test on stimulated PBMCs (Example 4, PHA or ConA stimulated PBMCs), the “Concentration reaching complete inhibition of proliferation activity” value is listed as 0.25 ×IC50.
With `CCNc1nc(C)c(-c2ccnc(Nc3ccc(CNC(C)=O)cc3)n2)s1` [Compound 9], the concentration for half-maximal inhibition (IC50) at CDK9/cyclin T1 was 97 nM; at CDK7/cyclin H, 147 nM; with tumour cell panels (72 h, read-out: IC50 Average) it was 250 nM; in the test with tumour cell panels (setting [1]) it was 250 nM; at CDK2E, 204 nM; at CDK2A it was 1670 nM. The 50% inhibitory concentration (IC50) amounted to 21 nM against AurB; 110 nM on CDK6D3; 2000 nM on CDK1B; 94 nM against AurA; 118 nM on CDK4D1. In addition, the results for the BrdU incorporation entry in the test with stimulated PBMCs (setting [2]), in the test with stimulated PBMCs (setting [3]) and in the test on stimulated PBMCs (setting [4]) were “clearly concentration dependent”, “higher than in PHA stimulated cells” and “concentration dependency was clearly seen; also recorded: needed at higher concentrations than the other compounds”, respectively.
In the case of `CCNc1nc(C)c(-c2ccnc(Nc3ccc(S(C)(=O)=O)cc3)n2)s1` [Compound 10], the IC50 is 81 nM at CDK9/cyclin T1; 455 nM on CDK7/cyclin H; 753 nM in the test on tumour cell panels (72 h, read-out: IC50 Average); 1000 nM with tumour cell panels (setting [1]); 13 nM on CDK2E; 115 nM on CDK2A. Besides, the 50% inhibitory concentration (IC50) is greater than 100000 nM at AurB; 6400 nM against CDK6D3; 1490 nM at CDK1B; greater than 10000 nM on AurA; 5100 nM against CDK4D1. In addition, the BrdU incorporation result with stimulated PBMCs (setting [2]) is reported as “clearly concentration dependent”; in the test with stimulated PBMCs (setting [3]) it was “higher than in PHA stimulated cells”; in the test on stimulated PBMCs (setting [4]), “concentration dependency was clearly seen; also recorded: needed at higher concentrations than the other compounds”.
